{
  "source": "patent US11028361B2",
  "about": "“Compositions and methods for stabilizing susceptible compounds” (LIFE TECHNOLOGIES CORPORATION, priority 2011, dated 2021)",
  "key": {"[1]": {"tested_on": "DG44-EPO, a CHO cell line expressing recombinant erythropoietin", "assay": "Cell culture potency of ethanolamine derivatives (viable cell density)", "assay_type": "cell-based, Chinese hamster", "conditions": "for Multiple of the ethanolamine molar equivalent yielding similar growth potential to ethanolamine: FIGS. 1A and 1B, titered up to 64× of a molar equivalent, viable cell density followed for 8 days", "description": "We tested a range of ethanolamine derivatives for cell culture potency, including phosphorylethanolamine (PE), triethanolamine (TE), diethanolamine (DE), monomethylethanolamine (MME), dimethylethanolamine (DME), and N-acetylethanolaine (NAE). […] The cell line used was DG44-EPO, a CHO cell line expressing recombinant erythropoietin, that requires ethanolamine for good growth. Cells were inoculated at 3×10^5/ml and cultured bi-weekly for 3 subpassages in each condition prior to starting the assay. The assay was also inoculated at 3×10^5/ml but followed for 8 days for viable cell density from a ViCell cell counter.\nNext we titered the compounds up to 64× of a molar equivalent. Both phoshorylethanolamine and NAE at about 16× the molar equivalent yielded similar growth potential to ethanolamine. In another set of experiments, NAE at about 16× the ethanolamine molar equivalent was again shown to be able to supplement an ethanolamine-sensitive line as well as ethanolamine. These latter experiments were performed in 24 well culture trays. Cells were inoculated at 1×10^5/ml and samples harvested at day 12. Because the nitrogen atom in NAE is contained within an amide structure, it is expected that NAE should be stable and can be used in place of ethanolamine in cell culture media.\nThe negative control is without ethanolamine. The line way above the rest should be disregarded—it is a CD CHO catalogue control, not relevant to this assay."}, "[2]": {"assay": "Microbeads protection studies during real-time ambient storage in AGT media (FIG. 8)", "assay_type": "physicochemical", "conditions": "FIG. 8, AGT media, ambient conditions", "description": "FIG. 8: Microbeads protection studies during real-time ambient storage."}, "HeLa cells": {"tested_on": "HeLa cells", "assay": "HeLa cell growth with insulin-dendrimer-RGD conjugate, microencapsulated or not (FIG. 7B)", "assay_type": "cell-based", "conditions": "for Potency and growth characteristics of HeLa cells: FIG. 7B", "description": "FIG. 7B: Impact of microencapsulation of the insulin-dendrimer-RGD covalent conjugate on the growth of HeLa cell Growth."}, "[3]": {"assay": "Stability of insulin / insulin-dendrimer with and without alginate microencapsulation (FIG. 7A, FIG. 10)", "assay_type": "physicochemical", "procedure": "Further examples for microencapsulating labile compounds other than ethanolamine are shown below. A sequestering agent like alginate was used to encapsulate or embed a dendrimer-insulin complex. The labile compound insulin was polymerized with PAMAM dendrimer, and further microencapsulated in alginate microbeads with or without PLL. Briefly, for dendrimer generation, PAMAM 2.5 (carboxylate surface groups) was used. Insulin was conjugated onto the dendrimer to which RGD sequences were also added to target the cell surface. The ratios of components in this complex was dendrimer:RGD:insulin=1:7:12.\nConcentration of conjugate and alginate was adjusted as on attachment. Next conjugate was added to the alginate and mixed several minutes to distribute evenly. It was dripped through a 26 gauge needle using a 1 ml syringe into a calcium chloride bath (13.32 g/L). It was left to incubate for 30 minutes to solidify microcapsules. Then rinsed 1× in a solution also containing the dendrimer conjugate to prevent loss of component from the microcapsules. Then dried overnight in a vacuum over dessicant. The loaded microbeads were then added to AGT dry-format medium or used by adding directly into a liquid medium.\nThe insulin concentration of the dendrimer-insulin-RGD conjugate was estimated to be ˜2 mg/ml (pg 165/168). It needed to be diluted in half to get to ˜1 mg/ml (1000 μg/ml). […]"}},
  "data": [
    {"compound": "CC(=O)NCCO", "note": "[NAE, N-acetylethanolamine]", "values": [
      {"measurement": "Higher concentration needed to perform in a cell growth assay comparable to ethanolamine", "setting": "[1]; FIG. 2A (Example 2)", "result": "8-12 fold"},
      {"measurement": "Multiple of the ethanolamine molar equivalent able to supplement an ethanolamine-sensitive line comparable to ethanolamine", "setting": "[1]; FIG. 2A cell growth titration assay (figure legend)", "result": "16-20 ×"},
      {"measurement": "Multiple of the ethanolamine molar equivalent yielding similar growth potential to ethanolamine", "setting": "[1]", "result": "about 16 ×"},
      {"measurement": "Multiple of the ethanolamine molar equivalent able to supplement an ethanolamine-sensitive line as well as ethanolamine", "setting": "[1]; another set of experiments, 24 well culture trays, harvested at day 12", "result": "about 16 ×"}
    ]},
    {"compound": "NCCO", "note": "[Unencapsulated ethanolamine, ethanolamine]", "values": [
      {"measurement": "Ethanolamine potency (activity) during ambient storage", "setting": "[2]", "result": "drops quickly"},
      {"measurement": "Ethanolamine potency (activity) during ambient storage", "setting": "[2]; listed as unprotected ethanolamine", "result": "dropped quickly"}
    ]},
    {"compound": "NCCOP(=O)(O)O", "note": "[phoshorylethanolamine, phosphorylethanolamine]", "values": [
      {"measurement": "Multiple of the ethanolamine molar equivalent yielding similar growth potential to ethanolamine", "setting": "[1]", "result": "about 16 ×"}
    ]},
    {"compound": "alginate", "values": [
      {"measurement": "Inhibition of / interference with viability or growth of HeLa cells", "setting": "HeLa cells", "result": "did not interfere with viability or growth of Hela cells"}
    ]},
    {"compound": "insulin [insulin alone]", "values": [
      {"measurement": "Potency and growth characteristics of HeLa cells", "setting": "HeLa cells", "result": "equivalent potency and growth characteristics of HeLa cells"}
    ]},
    {"compound": "unencapsulated dendrimer (with insulin): insulin conjugated onto PAMAM 2.5 dendrimer with RGD sequences, dendrimer:RGD:insulin=1:7:12, not encapsulated", "values": [
      {"measurement": "Potency of insulin at 4° C.", "setting": "[3]", "result": "comparable to that of insulin alone"},
      {"measurement": "Potency and growth characteristics of HeLa cells", "setting": "HeLa cells", "result": "equivalent potency and growth characteristics of HeLa cells"}
    ]}
  ]
}
